Test results reported in ChEMBL document CHEMBL1151973, “Rhazinilam and quebrachamine derivatives from Yunnan Kopsia arborea” (J Nat Prod, 2009).

What was measured:
A549 = assay: Cytotoxicity against human A549 cells after 96 hrs by microplate reader assay; format: functional, cell-based; settings: A549, 96 h
HT-29 = assay: Cytotoxicity against human HT-29 cells after 96 hrs by microplate reader assay; format: functional, cell-based; settings: HT-29, 96 h

SMILES	IC50 (A549) [µM]	IC50 (HT-29) [µM]
CC[C@@]12CCCN(CCc3c([nH]c4ccccc34)CC1)C2	> 30	30
CC[C@]12CCCn3c(COC)cc(c31)-c1ccccc1NC(=O)CC2	5.38	4.67
CC[C@]12CCCn3c(CO)cc(c31)-c1ccccc1NC(=O)CC2	8.21	8.89
CCOCc1cc2c3n1CCC[C@]3(CC)CCC(=O)Nc1ccccc1-2	7.44	6.39
CC(=O)O[C@@]12CO[C@@H]1C[C@H](O)[C@@]1(C)C(=O)[C@H](O)C3=C(C)[C@@H](OC(=O)[C@H](O)[C@@H](NC(=O)OC(C)(C)C)c4ccccc4)C[C@@](O)([C@@H](OC(=O)c4ccccc4)[C@H]21)C3(C)C [DOCETAXEL]	0.000495	0.000334
CC[C@@]12CCCN(CCc3c(n(COC)c4ccccc34)CC1)C2 [KOPSIYUNNANINE D]	> 30	30
CC[C@]12CCCn3ccc(c31)-c1ccccc1NC(=O)CC2 [RHAZINILAM]	0.35	0.35
